Here are results for 18 compounds from patent US11236047B2 (ASTEX THERAPEUTICS LIMITED, priority 2017, dated 2022).

One test has as its system SJSA-1 cells. The experiment in a line: Protocol B: SJSA-1 CellTiter-Glo luminescent cell viability assay.
For another test, the system named is SN40R2 cells. The test can be described thus: Protocol B: SN40R2 CellTiter-Glo luminescent cell viability assay. The settings on record: for IC50: read-out: SN40R2 IC50 (μM) (Protocol B).
[1] abbreviates: Homo sapiens, SJSA-1, read-out: SJSA1 IC50 (μM) (Protocol B), SJSA-1, Protocol B.
[2] abbreviates: read-out: SJSA1 IC50 (μM) (Protocol B), SJSA-1, Protocol B.
Where [3] appears, read: Homo sapiens, SJSA-1, read-out: SJSA1 IC50 (μM), Protocol B, SJSA-1.
[4] abbreviates: read-out: SN40R2 % inhibition at 10.
[5] abbreviates: read-out: SJSA1 IC50, Protocol B, SJSA-1.

Like-named read-outs stand apart in the source and are kept apart here.

Protocol for SN40R2 cells: Protocol B: SJSA-1 and SN40R2 Assays
The CellTiter-Glo® Luminescent Cell Viability Assay is a homogeneous method to determine the number of viable cells in culture based on quantitation of the ATP present, which signals the presence of metabolically active cells. […] 100 μl of CTG reagent (Promega #G7573) was added to all wells and luminescence was measured on the topcount. The EC50 values were determined from a sigmoidal 4 parameter curve fit using XLfit in conjunction with Activity Base (IDBS; Guildford, Surrey, UK).

With `CO[C@]1(c2ccc(Cl)cc2)c2c(F)cc(C(C)(O)c3ncc[nH]3)cc2C(=O)N1Cc1ccc(Cl)cn1` (single isomer, unassigned) [Example 163], the IC50 in the test with SJSA-1 cells (setting [1]) was found to be 3.1 µM; in the test with SN40R2 cells, 13 µM. On to `CO[C@]1(c2ccc(Cl)cc2)c2c(F)cc(C(C)(O)c3nccs3)cc2C(=O)N1Cc1ccc(Cl)cn1` (single isomer, unassigned) [Example 165], for which the IC50 in the test on SJSA-1 cells (setting [2]) came out at 1.4 µM; with SN40R2 cells, 13 µM. In the case of `CCC(O)(c1cc(F)c2c(c1)C(=O)N(Cc1ccc(C#N)cn1)[C@@]2(OCCO)c1ccc(Cl)cc1)c1cscn1` (single isomer, unassigned) [Example 333], in the test with SJSA-1 cells (setting [3]), the IC50 worked out at 0.22 µM. The inhibition at 10 µM in the test on SN40R2 cells (setting [4]) was determined as 5%.

In the case of `CCC(O)(c1cc(F)c2c(c1)C(=O)N(Cc1ccc(C#N)cn1)[C@@]2(OCC1(CO)CC1)c1ccc(Cl)cc1)c1cn(C)cn1` (single isomer, unassigned) [Example 338], the IC50 with SJSA-1 cells (setting [5]) was 1.5 µM. Also, the inhibition at 10 µM in the test on SN40R2 cells (setting [4]) stood at 6%. For `CCC(O)(CN1CCN(C)CC1)c1cc(F)c2c(c1)C(=O)N(Cc1ncc(Cl)cn1)[C@@]2(O[C@H]1CCOC1)c1ccc(Cl)cc1` (single isomer, unassigned) [Example 522], in the test with SJSA-1 cells (setting [5]), the IC50 turned out to be 0.048 µM. The inhibition at 10 µM in the test on SN40R2 cells (setting [4]) came to 24%. For `CCC(O)(CN1CCN(C)CC1)c1cc(F)c2c(c1)C(=O)N(Cc1ncc(Cl)cn1)[C@@]2(OCC1(C#N)CC1)c1ccc(Cl)cc1` (single isomer, unassigned) [Example 534], the IC50 in the test with SJSA-1 cells (setting [5]) stood at 0.7 µM. In the test with SN40R2 cells (setting [4]), the inhibition at 10 µM was determined as 44%. Consider `[2H]C([2H])(O)C1(C([2H])([2H])O[C@]2(c3ccc(Cl)cc3)c3c(F)cc(C(C)(O)CC)cc3C(=O)N2Cc2ncc(C#N)cn2)CC1` (single isomer, unassigned) [Example 576], for which the IC50 in the test on SJSA-1 cells (setting [3]) was determined as 0.14 µM. Further, the inhibition at 10 µM with SN40R2 cells (setting [4]) amounted to 5%. Take `CO[C@]1(c2ccc(Cl)cc2)c2c(F)cc(C(C)(O)c3cn(C)c(C)n3)cc2C(=O)N1Cc1ccc(Cl)cn1` (stereo partly drawn) [Example 162, (3R)-3-(4-Chlorophenyl)-2-[(5-chloropyridin-2-yl)methyl]-6-[1-(1,2-dimethyl-1H-imidazol-4-yl)-1-hydroxyethyl]-4-fluoro-3-methoxy-2,3-dihydro-1H-isoindol-1-one]: the IC50 was 0.22 µM in the test on SJSA-1 cells (setting [2]) and 13 µM in the test with SN40R2 cells. On to `CO[C@]1(c2ccc(Cl)cc2)c2c(F)cc(C(C)(O)C3CN(C)C3)cc2C(=O)N1Cc1ccc(Cl)cn1` (stereo partly drawn) [Example 307, (3R)-3-(4-chlorophenyl)-2-[(5-chloropyridin-2-yl)methyl]-4-fluoro-6-[1-hydroxy-1-(1-methylazetidin-3-yl)ethyl]-3-methoxy-2,3-dihydro-1H-isoindol-1-one], for which the IC50 in the test on SJSA-1 cells (setting [1]) was determined as 1.9 µM; in the test with SN40R2 cells it was 11 µM.

For `Cn1cc(C(C)(O)c2cc(F)c3c(c2)C(=O)N(Cc2ccc(Cl)cn2)[C@@]3(OCC2(CO)CC2)c2ccc(Cl)cc2)cn1` (stereo partly drawn) [Example 346, (3R)-3-(4-chlorophenyl)-2-[(5-chloropyridin-2-yl)methyl]-4-fluoro-6-[1-hydroxy-1-(1-methyl-1H-pyrazol-4-yl)ethyl]-3-{[1-(hydroxymethyl)cyclopropyl]methoxy}-2,3-dihydro-1H-isoindol-1-one], the IC50 in the test with SJSA-1 cells (setting [1]) is 0.012 µM; in the test with SN40R2 cells it was 12 µM.

As to `CC(O)(c1cc(F)c2c(c1)C(=O)N(Cc1ncc(Cl)cn1)[C@@]2(OCC1(CO)CC1)c1ccc(Cl)cc1)[C@H]1CC[C@H](O)CC1` (stereo partly drawn) [Example 401, (3R)-3-(4-chlorophenyl)-2-[(5-chloropyrimidin-2-yl)methyl]-4-fluoro-6-{1-hydroxy-1-[trans-4-hydroxycyclohexyl]ethyl}-3-{[1-(hydroxymethyl)cyclopropyl]methoxy}-2,3-dihydro-1H-isoindol-1-one], the IC50 in the test on SJSA-1 cells (setting [5]) was determined as 0.0098 µM. For the same compound, in the test with SN40R2 cells (setting [4]), the inhibition at 10 µM turned out to be 6%. Turning to `CCC(O)(c1cc(F)c2c(c1)C(=O)N(Cc1ccc(C#N)cn1)[C@@]2(OCC1(F)COC1)c1ccc(Cl)cc1)c1cn(C)cn1` (stereo partly drawn) [Example 435, 6-{[(1R)-1-(4-chlorophenyl)-7-fluoro-1-[(3-fluorooxetan-3-yl)methoxy]-5-[1-hydroxy-1-(1-methyl-1H-imidazol-4-yl)propyl]-3-oxo-2,3-dihydro-1H-isoindol-2-yl]methyl}pyridine-3-carbonitrile], in the test on SJSA-1 cells (setting [3]), the IC50 was determined as 0.015 µM. Moreover, in the test on SN40R2 cells (setting [4]), the inhibition at 10 µM was found to be 0%. Take `[2H]C([2H])(O)C1(C([2H])([2H])O[C@]2(c3ccc(Cl)cc3)c3c(F)cc(C(O)(CC)c4cn(C)cn4)cc3C(=O)N2Cc2ccc(C#N)cn2)CC1` (stereo partly drawn) [Example 439, 6-{[(1R)-1-(4-chlorophenyl)-7-fluoro-1-({1-[hydroxy(^2H2)methyl]cyclopropyl}(^2H2)methoxy)-5-[1-hydroxy-1-(1-methyl-1H-imidazol-4-yl)propyl]-3-oxo-2,3-dihydro-1H-isoindol-2-yl]methyl}pyridine-3-carbonitrile]: the IC50 in the test on SJSA-1 cells (setting [5]) was determined as 0.03 µM. Besides, the inhibition at 10 µM with SN40R2 cells (setting [4]) came out at 3%. Regarding `[2H]C([2H])(O)C1(C([2H])([2H])O[C@]2(c3ccc(Cl)cc3)c3c(F)cc(C(C)(C)C4(F)CCOCC4)cc3C(=O)N2Cc2ncc(Cl)cn2)CC1` [Example 447, (3R)-3-(4-Chlorophenyl)-2-[(5-chloropyrimidin-2-yl)methyl]-4-fluoro-6-[1-(4-fluorooxan-4-yl)-1-hydroxyethyl]-3-({1-[hydroxy(^2H2)methyl]cyclopropyl}(^2H2)methoxy)-2,3-dihydro-1H-isoindol-1-one], the IC50 in the test on SJSA-1 cells (setting [3]) amounted to 0.011 µM. For the same compound, the inhibition at 10 µM with SN40R2 cells (setting [4]) stood at 10%. For `CC[C@@](O)(c1cc(F)c2c(c1)C(=O)N(Cc1ncc(Cl)cn1)[C@@]2(OC[C@@H](C)O)c1ccc(Cl)cc1)C1CCN(C)CC1` [Example 562, (3R)-3-(4-chlorophenyl)-2-[(5-chloropyrimidin-2-yl)methyl]-4-fluoro-6-[(1S)-1-hydroxy-1-(1-methylpiperidin-4-yl)propyl]-3-[(2R)-2-hydroxypropoxy]-2,3-dihydro-1H-isoindol-1-one], in the test on SN40R2 cells (setting [4]), the inhibition at 10 µM turned out to be 1%. Consider `CC[C@](O)(c1cc(F)c2c(c1)C(=O)N(Cc1ncc(Cl)cn1)[C@@]2(OC)c1ccc(Cl)cc1)C1CCN(C)CC1` [Example 566, (3R)-3-(4-chlorophenyl)-2-[(5-chloropyrimidin-2-yl)methyl]-4-fluoro-6-[(1R)-1-hydroxy-1-(1-methylpiperidin-4-yl)propyl]-3-methoxy-2,3-dihydro-1H-isoindol-1-one], for which the inhibition at 10 µM with SN40R2 cells (setting [4]) worked out at 46%. As for `CC(O)(c1cc(F)c2c(c1)C(=O)N(Cc1ccc(C#N)cn1)[C@@]2(OC[C@H](O)CF)c1ccc(Cl)cc1)C1(F)CCOCC1` (stereo partly drawn) [Example 579, 6-{[(1R)-1-(4-chlorophenyl)-7-fluoro-1-[(2S)-3-fluoro-2-hydroxypropoxy]-5-[1-(4-fluorooxan-4-yl)-1-hydroxyethyl]-3-oxo-2,3-dihydro-1H-isoindol-2-yl]methyl}pyridine-3-carbonitrile], in the test on SN40R2 cells (setting [4]), the inhibition at 10 µM turned out to be 4%. As for `[2H]C([2H])(O)C([2H])([2H])O[C@]1(c2ccc(Cl)cc2)c2c(F)cc(C(O)(CC)C3(F)CCN(C)CC3)cc2C(=O)N1Cc1ncc(Cl)cn1` (stereo partly drawn) [Example 580, (3R)-3-(4-chlorophenyl)-2-[(5-chloropyrimidin-2-yl)methyl]-4-fluoro-6-[1-(4-fluoro-1-methylpiperidin-4-yl)-1-hydroxypropyl]-3-[2-hydroxy(1,1,2,2-tetradeutero)ethoxy]-2,3-dihydro-1H-isoindol-1-one], the inhibition at 10 µM with SN40R2 cells (read-out: SN40R2 % inhibition at 10, Protocol B, SN40R2, at 10 μM) amounted to 13%.
